Source: ChEMBL document CHEMBL2331139, “Discovery of BAF312 (Siponimod), a Potent and Selective S1P Receptor Modulator” (ACS Med Chem Lett, 2013)
Active and inactive are the calls of the source. No cut-off for these calls is given here.

Experiments:
[1] = target: T1, Sphingosine 1-phosphate receptor 3 (Homo sapiens, UniProt Q99500); assay: Agonist activity at human S1P3 receptor transfected in CHO cells at 10 uM incubated for 10 to 15 mins prior to GTPgamma35S addition measured after 120 mins by GTPgamma35S binding assay relative to S1P; assay type: functional, cell-based
T1 sequence (Q99500 whole entry): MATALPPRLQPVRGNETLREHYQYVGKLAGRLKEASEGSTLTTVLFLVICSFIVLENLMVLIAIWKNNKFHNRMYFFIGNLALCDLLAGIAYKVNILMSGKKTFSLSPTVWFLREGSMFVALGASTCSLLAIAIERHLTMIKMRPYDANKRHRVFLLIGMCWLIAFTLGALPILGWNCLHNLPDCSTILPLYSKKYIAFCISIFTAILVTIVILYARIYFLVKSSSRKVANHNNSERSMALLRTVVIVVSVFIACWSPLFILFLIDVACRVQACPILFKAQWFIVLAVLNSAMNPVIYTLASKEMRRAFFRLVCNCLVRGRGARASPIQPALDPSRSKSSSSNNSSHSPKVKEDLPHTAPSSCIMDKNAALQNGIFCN

[2] = target: T2, Sphingosine 1-phosphate receptor 1 (Homo sapiens, UniProt P21453); assay: Agonist activity at human S1P1 receptor transfected in CHO cells at 10 uM incubated for 10 to 15 mins prior to GTPgamma35S addition measured after 120 mins by GTPgamma35S binding assay relative to S1P; assay type: functional, cell-based
T2 sequence (P21453 whole entry): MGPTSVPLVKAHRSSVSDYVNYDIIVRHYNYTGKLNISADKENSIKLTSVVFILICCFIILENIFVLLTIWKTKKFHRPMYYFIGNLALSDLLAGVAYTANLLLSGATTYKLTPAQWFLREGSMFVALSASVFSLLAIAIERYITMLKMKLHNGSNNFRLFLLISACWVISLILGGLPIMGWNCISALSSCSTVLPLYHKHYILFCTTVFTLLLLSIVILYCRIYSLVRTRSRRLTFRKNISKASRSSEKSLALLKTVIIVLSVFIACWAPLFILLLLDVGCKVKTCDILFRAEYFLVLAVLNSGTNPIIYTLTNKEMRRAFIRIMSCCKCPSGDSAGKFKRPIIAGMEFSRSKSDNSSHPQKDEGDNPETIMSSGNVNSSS

[3] = target: T1, Sphingosine 1-phosphate receptor 3; assay: Agonist activity at human S1P3 receptor transfected in CHO cells incubated for 10 to 15 mins prior to GTPgamma35S addition measured after 120 mins by GTPgamma35S binding assay; assay type: functional, cell-based
[4] = target: T2, Sphingosine 1-phosphate receptor 1; assay: Agonist activity at human S1P1 receptor transfected in CHO cells incubated for 10 to 15 mins prior to GTPgamma35S addition measured after 120 mins by GTPgamma35S binding assay; assay type: functional, cell-based
Rattus norvegicus [5] = assay: Reduction in peripheral lymphocyte count in po dosed Lewis rat after 6 hrs; assay type: functional
hERG (KCNH2) = hERG (KCNH2) (Homo sapiens, UniProt Q12809); assay: Inhibition of human ERG channel at 25 uM
hERG (KCNH2), sequence (Q12809 whole entry): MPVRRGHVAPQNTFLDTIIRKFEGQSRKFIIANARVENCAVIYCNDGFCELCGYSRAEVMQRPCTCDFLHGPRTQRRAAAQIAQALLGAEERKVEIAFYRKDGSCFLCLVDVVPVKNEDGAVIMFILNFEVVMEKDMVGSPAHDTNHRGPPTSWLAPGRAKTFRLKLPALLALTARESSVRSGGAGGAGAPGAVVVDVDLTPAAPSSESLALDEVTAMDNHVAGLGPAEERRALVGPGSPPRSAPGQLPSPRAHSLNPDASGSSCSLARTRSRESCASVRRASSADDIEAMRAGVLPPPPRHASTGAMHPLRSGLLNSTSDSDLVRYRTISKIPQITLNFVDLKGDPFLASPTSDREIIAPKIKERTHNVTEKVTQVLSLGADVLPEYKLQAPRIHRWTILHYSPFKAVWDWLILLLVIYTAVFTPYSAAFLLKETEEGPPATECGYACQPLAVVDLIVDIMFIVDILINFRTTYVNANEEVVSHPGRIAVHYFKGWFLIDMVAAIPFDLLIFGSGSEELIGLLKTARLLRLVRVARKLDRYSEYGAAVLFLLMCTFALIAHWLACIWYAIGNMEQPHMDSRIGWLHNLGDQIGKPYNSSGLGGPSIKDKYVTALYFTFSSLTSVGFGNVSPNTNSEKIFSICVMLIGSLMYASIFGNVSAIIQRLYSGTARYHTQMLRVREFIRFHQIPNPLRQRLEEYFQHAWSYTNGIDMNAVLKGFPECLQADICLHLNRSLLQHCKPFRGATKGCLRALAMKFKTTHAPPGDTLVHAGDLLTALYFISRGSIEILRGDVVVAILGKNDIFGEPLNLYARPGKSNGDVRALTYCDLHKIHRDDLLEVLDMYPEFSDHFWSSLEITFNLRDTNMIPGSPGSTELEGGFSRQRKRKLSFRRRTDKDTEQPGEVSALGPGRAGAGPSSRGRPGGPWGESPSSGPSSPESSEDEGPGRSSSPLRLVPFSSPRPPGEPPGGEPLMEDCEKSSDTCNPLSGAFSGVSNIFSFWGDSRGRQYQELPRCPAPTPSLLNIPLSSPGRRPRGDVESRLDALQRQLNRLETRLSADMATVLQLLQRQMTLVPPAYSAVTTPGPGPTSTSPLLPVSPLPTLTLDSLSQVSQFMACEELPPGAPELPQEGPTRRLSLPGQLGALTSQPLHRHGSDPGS

[6] = Tmax in Lewis rat at 1 mg/kg, po after 8 hrs; assay type: ADME, organism-based; set-up: dose 1 mg/kg, route oral; details: in vivo
Rattus norvegicus [7] = assay: Reduction in peripheral lymphocyte count in Lewis rat at 1 mg/kg, po after 48 hrs; assay type: functional, organism-based; set-up: dose 1 mg/kg
Rattus norvegicus [8] = assay: Reduction in peripheral lymphocyte count in Lewis rat at 1 mg/kg, po after 8 hrs; assay type: functional; set-up: scale not given: the % may be the effect or the level left
[9] = Terminal half life in rat; assay type: ADME, organism-based; details: in vivo, read-out: beta t1/2 (converted)
[10] = Terminal half life in monkey; assay type: ADME, organism-based, Macaca mulatta; details: rhesus monkey, in vivo; read-out: beta t1/2 (converted)
[11] = Volume of distribution at steady state in monkey; assay type: ADME, organism-based, Macaca mulatta; details: rhesus monkey, in vivo; read-out: Vdss
[12] = Volume of distribution at steady state in rat; assay type: ADME, organism-based; details: in vivo, read-out: Vdss
[13] = Clearance in monkey; assay type: ADME, organism-based, Macaca mulatta; details: rhesus monkey, in vivo
[14] = Clearance in rat; assay type: ADME, organism-based; details: in vivo
[15] = Oral bioavailability in monkey; assay type: ADME, organism-based, Macaca mulatta; details: rhesus monkey, in vivo
[16] = Oral bioavailability in rat; assay type: ADME, organism-based; details: in vivo
[17] = Drug absorption in rat; assay type: ADME, organism-based; details: in vivo, read-out: Fabs
Rattus norvegicus [18] = species on record: Rattus norvegicus; assay: Drug excretion in rat; assay type: ADME, organism-based; details: in vivo
Caco-2 = assay: Permeability across human Caco2 cells at 0.5 to 50 uM; assay type: ADME, cell-based; details: caco-2, 50 µM
[19] = Plasma protein binding in monkey; assay type: ADME, cell-free, Macaca mulatta; details: rhesus monkey, read-out: PPB
[20] = Plasma protein binding in human; assay type: ADME, cell-free; details: read-out: PPB
[21] = Plasma protein binding in dog; assay type: ADME, cell-free, Canis lupus familiaris; details: read-out: PPB
[22] = Plasma protein binding in rat; assay type: ADME, cell-free; details: read-out: PPB
Mus musculus = assay: Volume of distribution at steady state in po dosed mouse; assay type: ADME, organism-based; details: in vivo
[23] = Elimination half life in po dosed mouse; assay type: ADME, organism-based; details: in vivo, read-out: beta t1/2

| Structure (SMILES) | Emax [1] [%] | Emax [2] | EC50 [3] [nM] | EC50 [4] [nM] | also measured |
| --- | --- | --- | --- | --- | --- |
| C/C(=N\OCc1ccc(C2CCCCC2)c(C(F)(F)F)c1)c1ccc(CNCCC(=O)O)c(C2CC2)c1 | 63 | 98% | 1300 | 0.4 | – |
| C/C(=N\OCc1ccc(C2CCCCC2)c(C(F)(F)F)c1)c1ccc(CNCCC(=O)O)cn1 | 53 | 92% | 2600 | 1.4 | – |
| C/C(=N\OCc1ccc(C2CCCCC2)c(C(F)(F)F)c1)c1ccc(CNCCC(=O)O)s1 | 79 | 104% | 4000 | 2.2 | – |
| CCc1cc(/C(C)=N/OCc2ccc(C3CCCCC3)c(C(F)(F)F)c2)ccc1CNCCC(=O)O | 43 | 92% | 7200 | 0.7 | – |
| C/C(=N\OCc1ccc(C2CCCCC2)c(C(F)(F)F)c1)c1ccc(CNCCC(=O)O)o1 | 62 | 100% | 2500 | 17 | – |
| C/C(=N\OCc1ccc(-c2ccc(C(F)(F)F)cc2)cc1)c1ccc(CNCCC(=O)O)cc1 | – | – | – | 10000 | – |
| C/C(=N\OCc1ccc(-c2ccco2)c(C(F)(F)F)c1)c1ccc(CNCCC(=O)O)cc1 | – | – | 3000 | 15 | – |
| COc1ccccc1-c1ccc(CO/N=C(\C)c2ccc(CNCCC(=O)O)cc2)cc1 | – | – | – | 1400 | – |
| C/C(=N\OCc1ccc(C2CCCCC2)c(C(F)(F)F)c1)c1ccc(CNCCC(=O)O)nc1 | 44 | 86% | 4300 | 2.6 | – |
| CCc1cc(/C(C)=N/OCc2ccc(C3CCCCC3)c(C(F)(F)F)c2)ccc1CN1CC(C(=O)O)C1 [SIPONIMOD] | 55 | 91% | 5000 | – | ED50 (Rattus norvegicus [5]): 0.14 mg/kg; inhibition at 25 µM (hERG (KCNH2)): < 10%; Tmax [6]: 8 h; Activity (Rattus norvegicus [7]): inactive; Activity (Rattus norvegicus [8]): 88%; half-life [9]: 6 h; half-life [10]: 19 h; Vd [11]: 2.12 L/kg; Vd [12]: 2.15 L/kg; clearance [13]: 1.63 mL/min/kg; clearance [14]: 6 mL/min/kg; bioavailability [15]: 71%; bioavailability [16]: 50%; Fa [17]: 58%; Drug excretion (Rattus norvegicus [18]): Not Active; permeability (Caco-2): permeable; fraction unbound [19]: < 0.001; fraction unbound [20]: < 0.001; fraction unbound [21]: < 0.001; fraction unbound [22]: < 0.001 |
| C/C(=N\OCc1ccc(-c2ccccc2C(F)(F)F)cc1)c1ccc(CNCCC(=O)O)cc1 | – | – | – | 1700 | – |
| C/C(=N\OCc1ccc(-c2ccccc2)cc1C(F)(F)F)c1ccc(CNCCC(=O)O)cc1 | – | inactive | – | 10000 | – |
| C/C(=N\OCc1ccc(-c2ccc(F)cc2)c(C(F)(F)F)c1)c1ccc(CNCCC(=O)O)cc1 | – | – | – | 11 | – |
| C/C(=N\OCc1ccc(-c2ccc(C)cc2)cc1)c1ccc(CNCCC(=O)O)cc1 | – | – | – | 640 | – |
| C/C(=N\OCc1ccc(C2CCCCC2)c(C(F)(F)F)c1)c1ccc(CNCCC(=O)O)c(C)c1 | 159 | 94% | 5900 | 2 | – |
| C/C(=N\OCc1ccc(C2CCCCC2)c(C(F)(F)F)c1)c1ccc(CNCCC(=O)O)cc1 | – | – | 1500 | 0.3 | – |

| Structure (SMILES) | Emax [1] [%] | Emax [2] | EC50 [3] [nM] | EC50 [4] [nM] | also measured |
| --- | --- | --- | --- | --- | --- |
| C/C(=N\OCc1ccc(-c2ccccc2)c(C(F)(F)F)c1)c1ccc(CNCCC(=O)O)cc1 | – | – | – | 9 | – |
| C/C(=N\OCc1ccc(-c2ccccc2)cc1F)c1ccc(CNCCC(=O)O)cc1 | – | – | – | 120 | – |
| C/C(=N\OCc1ccc(-c2ccc(F)c(F)c2)c(C(F)(F)F)c1)c1ccc(CNCCC(=O)O)cc1 | – | – | – | 16 | – |
| C/C(=N\OCc1ccc(C2CCCC2)c(C(F)(F)F)c1)c1ccc(CNCCC(=O)O)cc1 | – | – | 1600 | 0.6 | – |
| C/C(=N\OCc1ccc(C2CCCCC2)c(C(F)(F)F)c1)c1ccc(CNCCC(=O)O)c(F)c1 | 61 | 105% | 2200 | 0.3 | – |
| C/C(=N\OCc1ccc(-c2ccc(C)cc2)c(C(F)(F)F)c1)c1ccc(CNCCC(=O)O)cc1 | – | – | – | 94 | – |
| C/C(=N\OCc1ccc(-c2ccccc2F)c(C(F)(F)F)c1)c1ccc(CNCCC(=O)O)cc1 | – | – | – | 8 | – |
| C/C(=N\OCc1ccc(C2CCCCC2)c(C(F)(F)F)c1)c1ccc(CN2CC(C(=O)O)C2)c(C)c1 | 127 | 80% | 3200 | 1.6 | – |
| C/C(=N\OCc1ccc(-c2ccccc2)cc1)c1ccc(CCC(N)(CO)CO)cc1 | – | – | – | – | Vdss (Mus musculus): 36.9 L/kg; half-life [23]: > 30 h |
| C/C(=N\OCc1ccc(-c2ccccc2)c(F)c1)c1ccc(CNCCC(=O)O)cc1 | – | – | – | 61 | – |
| C/C(=N\OCc1ccc(C2CCCCC2)c(C(F)(F)F)c1)c1ccc(CNCCC(=O)O)c(Cl)c1 | 50 | 106% | 1900 | 0.6 | – |
| C/C(=N\OCc1ccc(-c2cccs2)c(C(F)(F)F)c1)c1ccc(CNCCC(=O)O)cc1 | – | – | 5900 | 18 | – |
| C/C(=N\OCc1ccc(-c2ccccc2)cc1)c1ccc(CNCCC(=O)O)cc1 | – | – | – | 300 | – |
| C/C(=N\OCc1ccc(C2CCCCC2)c(C(F)(F)F)c1)c1ccc(CNCCC(=O)O)c(Br)c1 | 65 | 85% | 1100 | 0.4 | – |
| C/C(=N\OCc1ccc(-c2ccc(F)cc2)cc1)c1ccc(CNCCC(=O)O)cc1 | – | – | – | 210 | – |
| COc1ccc(-c2ccc(CO/N=C(\C)c3ccc(CNCCC(=O)O)cc3)cc2)cc1 | – | – | – | 1500 | – |
